Consider 19 compounds from patent US8404708B2, “Dual NK1/NK3 receptor antagonists” (Hoffmann-La Roche Inc., priority 2004, dated 2013).

SMILES strings stand for the structures.

The target in assay [1] is T1, Recombinant human NK3 (hNK3) receptor (Homo sapiens, UniProt P29371).
T1 construct: expressed in transfected cells
T1 sequence (P29371 1-465): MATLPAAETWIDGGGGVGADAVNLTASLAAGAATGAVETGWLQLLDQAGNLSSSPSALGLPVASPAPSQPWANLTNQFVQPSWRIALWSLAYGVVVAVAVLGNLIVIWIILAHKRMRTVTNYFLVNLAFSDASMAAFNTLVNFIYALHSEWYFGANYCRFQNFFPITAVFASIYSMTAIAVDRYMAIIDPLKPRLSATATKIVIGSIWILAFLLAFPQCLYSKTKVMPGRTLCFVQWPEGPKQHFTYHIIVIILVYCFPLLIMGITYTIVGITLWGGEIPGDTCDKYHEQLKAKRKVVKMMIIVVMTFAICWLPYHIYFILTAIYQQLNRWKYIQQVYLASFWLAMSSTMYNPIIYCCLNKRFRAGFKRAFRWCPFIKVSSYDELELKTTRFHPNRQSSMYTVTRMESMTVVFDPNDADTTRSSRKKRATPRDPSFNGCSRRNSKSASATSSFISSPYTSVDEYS
The experiment in a line: NK3 receptor binding, [3H]SR142801 displacement, membrane preparations. As to conditions: second value of the cell NK1/NK3; read-out: pKi NK3 (converted). In short, it runs like this: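 Room-temperature, 90-min filtration binding assay using about 2.5 μg recombinant receptor membranes per well; separation on polyethyleneimine-treated glass-fibre (GF/C) filters and liquid scintillation read-out, with 10 μM SB222200 for nonspecific binding.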

Assay [2] addresses human NK1 receptor (Homo sapiens, UniProt P25103). The experiment in a line: NK1 receptor binding, [3H]substance P displacement, CHO cell membranes. To be noted: first value of the cell NK1/NK3; read-out: pKi NK1 (converted).

human NK1 receptor, sequence (P25103 whole entry): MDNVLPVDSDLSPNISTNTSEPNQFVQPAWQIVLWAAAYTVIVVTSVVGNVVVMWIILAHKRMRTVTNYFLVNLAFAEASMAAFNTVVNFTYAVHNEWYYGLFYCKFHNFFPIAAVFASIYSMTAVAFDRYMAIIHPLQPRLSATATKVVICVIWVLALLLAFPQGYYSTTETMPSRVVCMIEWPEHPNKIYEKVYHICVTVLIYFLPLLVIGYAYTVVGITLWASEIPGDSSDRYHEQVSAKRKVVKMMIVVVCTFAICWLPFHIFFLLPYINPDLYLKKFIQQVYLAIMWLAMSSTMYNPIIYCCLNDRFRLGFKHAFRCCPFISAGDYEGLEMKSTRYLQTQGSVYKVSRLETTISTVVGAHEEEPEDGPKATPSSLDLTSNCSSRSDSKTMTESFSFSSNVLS

As to `Cc1ccc(-c2cc(N3C[C@H](O)C[C@H]3CO)ncc2N(C)C(=O)C(C)(C)c2cc(C(F)(F)F)cc(C(F)(F)F)c2)cc1F` [Example 210, (2S,4R)-2-(3,5-Bis-trifluoromethyl-phenyl)-N-[4-(3-fluoro-4-methyl-phenyl)-6-(4-hydroxy-2-hydroxymethyl-pyrrolidin-1-yl)-pyridin-3-yl]-N-methyl-isobutyramide], the values for the Ki in assay [1] and in assay [2] were 13.8 nM and 2.29 nM, respectively.

`Cc1cc(-c2cc(N3C[C@H](O)C[C@H]3CO)ncc2N(C)C(=O)C(C)(C)c2cc(C(F)(F)F)cc(C(F)(F)F)c2)ccc1F` [Example 211, (2S,4R)-2-(3,5-Bis-trifluoromethyl-phenyl)-N-[4-(4-fluoro-3-methyl-phenyl)-6-(4-hydroxy-2-hydroxymethyl-pyrrolidin-1-yl)-pyridin-3-yl]-N-methyl-isobutyramide]: the Ki in assay [1] is 15.5 nM; in assay [2], 1.66 nM.

As for `CN(C(=O)C(C)(C)c1cc(C(F)(F)F)cc(C(F)(F)F)c1)c1cnc(N2C[C@H](O)C[C@H]2CO)cc1-c1ccc(F)c(Cl)c1` [Example 212, (2S,4R)-2-(3,5-Bis-trifluoromethyl-phenyl)-N-[4-(3-chloro-4-fluoro-phenyl)-6-(4-hydroxy-2-hydroxymethyl-pyrrolidin-1-yl)-pyridin-3-yl]-N-methyl-isobutyramide], the Ki in assay [1] was 2.51 nM; in assay [2], 0.813 nM.

Regarding `CN(C(=O)C(C)(C)c1cc(C(F)(F)F)cc(C(F)(F)F)c1)c1cnc(N2C[C@H](O)C[C@H]2CO)cc1-c1ccccc1N` [Example 213, (2S,4R)-N-[4-(2-Amino-phenyl)-6-(4-hydroxy-2-hydroxymethyl-pyrrolidin-1-yl)-pyridin-3-yl]-2-(3,5-bis-trifluoromethyl-phenyl)-N-methyl-isobutyramide], the Ki in assay [1] is 3.24 nM; in assay [2] it was 0.661 nM.

With `COc1ccccc1-c1cc(N2C[C@H](O)C[C@H]2CO)ncc1N(C)C(=O)C(C)(C)c1cc(C(F)(F)F)cc(C(F)(F)F)c1` [Example 214, (2S,4R)-2-(3,5-Bis-trifluoromethyl-phenyl)-N-[6-(4-hydroxy-2-hydroxymethyl-pyrrolidin-1-yl)-4-(2-methoxy-phenyl)-pyridin-3-yl]-N-methyl-isobutyramide], the Ki in assay [1] is 2.75 nM; in assay [2], 1.02 nM.

On to `CN(C(=O)C(C)(C)c1cc(C(F)(F)F)cc(C(F)(F)F)c1)c1cnc(N2C[C@H](O)C[C@H]2CO)cc1-c1ccccc1O` [Example 215, (2S,4R)-2-(3,5-Bis-trifluoromethyl-phenyl)-N-[6-(4-hydroxy-2-hydroxymethyl-pyrrolidin-1-yl)-4-(2-hydroxy-phenyl)-pyridin-3-yl]-N-methyl-isobutyramide], for which the Ki is 4.47 nM in assay [1] and 1.02 nM in assay [2].

With `Cc1ccccc1-c1cc(N2C[C@H](O)C[C@H]2CO)ncc1N(C)C(=O)C(C)(C)c1cc(C(F)(F)F)cc(C(F)(F)F)c1` [Example 216, (2S,4R)-2-(3,5-Bis-trifluoromethyl-phenyl)-N-[6-(4-hydroxy-2-hydroxymethyl-pyrrolidin-1-yl)-4-o-tolyl-pyridin-3-yl]-N-methyl-isobutyramide], the values for the Ki in assay [1] and in assay [2] were 0.794 nM and 1.35 nM, respectively.

`CSc1ccccc1-c1cc(N2C[C@H](O)C[C@H]2CO)ncc1N(C)C(=O)C(C)(C)c1cc(C(F)(F)F)cc(C(F)(F)F)c1` [Example 217, (2S,4R)-2-(3,5-Bis-trifluoromethyl-phenyl)-N-[6-(4-hydroxy-2-hydroxymethyl-pyrrolidin-1-yl)-4-(2-methylsulfanyl-phenyl)-pyridin-3-yl]-N-methyl-isobutyramide]: the Ki is 2.4 nM in assay [1] and 1.05 nM in assay [2].

`CN(C(=O)C(C)(C)c1cc(C(F)(F)F)cc(C(F)(F)F)c1)c1cnc(N2C[C@H](O)C[C@H]2CO)cc1-c1ccccc1S(C)(=O)=O` [Example 218, (2S,4R)-2-(3,5-Bis-trifluoromethyl-phenyl)-N-[6-(4-hydroxy-2-hydroxymethyl-pyrrolidin-1-yl)-4-(2-methanesulfonyl-phenyl)-pyridin-3-yl]-N-methyl-isobutyramide]: the Ki in assay [1] is 7.24 nM; in assay [2], 2.63 nM.

On to `CN(C(=O)C(C)(C)c1cc(C(F)(F)F)cc(C(F)(F)F)c1)c1cnc(N2C[C@H](O)C[C@H]2CO)cc1-c1ccccc1C(N)=O` [Example 219, (2S,4R)-2-[5-{[2-(3,5-Bis-trifluoromethyl-phenyl)-2-methyl-propionyl]-methyl-amino}-2-(4-hydroxy-2-hydroxymethyl-pyrrolidin-1-yl)-pyridin-4-yl]-benzamide], for which the Ki in assay [1] was 20.4 nM; in assay [2], 1.45 nM.

As for `CN(C(=O)C(C)(C)c1cc(C(F)(F)F)cc(C(F)(F)F)c1)c1cnc(N2C[C@H](O)C[C@H]2CO)cc1-c1ccc(F)cc1F` [Example 220, (2S,4R)-2-(3,5-Bis-trifluoromethyl-phenyl)-N-[4-(2,4-difluoro-phenyl)-6-(4-hydroxy-2-hydroxymethyl-pyrrolidin-1-yl)-pyridin-3-yl]-N-methyl-isobutyramide], the Ki in assay [1] was 6.61 nM; in assay [2], 1.51 nM.

As for `CN(C(=O)C(C)(C)c1cc(C(F)(F)F)cc(C(F)(F)F)c1)c1cnc(N2C[C@H](O)C[C@H]2CO)cc1-c1ccc(F)cc1Cl` [Example 221, (2S,4R)-2-(3,5-Bis-trifluoromethyl-phenyl)-N-[4-(2-chloro-4-fluoro-phenyl)-6-(4-hydroxy-2-hydroxymethyl-pyrrolidin-1-yl)-pyridin-3-yl]-N-methyl-isobutyramide], the values for the Ki in assay [1] and in assay [2] were 5.25 nM and 0.933 nM, respectively.

As to `CN(C(=O)C(C)(C)c1cc(C(F)(F)F)cc(C(F)(F)F)c1)c1cnc(N2C[C@H](O)C[C@H]2CO)cc1-c1ccc(F)cc1C=O` [Example 222, (2S,4R)-2-(3,5-Bis-trifluoromethyl-phenyl)-N-[4-(4-fluoro-2-formyl-phenyl)-6-(4-hydroxy-2-hydroxymethyl-pyrrolidin-1-yl)-pyridin-3-yl]-N-methyl-isobutyramide], the figures for the Ki in assay [1] and in assay [2] were 1.02 nM and 1.05 nM, respectively.

For `CN(C(=O)C(C)(C)c1cc(C(F)(F)F)cc(C(F)(F)F)c1)c1cnc(N2C[C@H](O)C[C@H]2CO)cc1-c1ccc(F)cc1CO` [Example 223, (2S,4R)-2-(3,5-Bis-trifluoromethyl-phenyl)-N-[4-(4-fluoro-2-hydroxymethyl-phenyl)-6-(4-hydroxy-2-hydroxymethyl-pyrrolidin-1-yl)-pyridin-3-yl]-N-methyl-isobutyramide], the Ki is 3.09 nM in assay [1] and 0.708 nM in assay [2].

Take `CN(C(=O)C(C)(C)c1cc(C(F)(F)F)cc(C(F)(F)F)c1)c1cnc(N2C[C@H](O)C[C@H]2CO)cc1-c1ccccc1C=O` [Example 224, (2S,4R)-2-(3,5-Bis-trifluoromethyl-phenyl)-N-[4-(2-formyl-phenyl)-6-(4-hydroxy-2-hydroxymethyl-pyrrolidin-1-yl)-pyridin-3-yl]-N-methyl-isobutyramide]: the results for the Ki in assay [1] and in assay [2] were 1.51 nM and 1.12 nM, respectively.

`CN(C(=O)C(C)(C)c1cc(C(F)(F)F)cc(C(F)(F)F)c1)c1cnc(N2C[C@H](O)C[C@H]2CO)cc1-c1ccccc1CO` [Example 225, (2S,4R)-2-(3,5-Bis-trifluoromethyl-phenyl)-N-[6-(4-hydroxy-2-hydroxymethyl-pyrrolidin-1-yl)-4-(2-hydroxymethyl-phenyl)-pyridin-3-yl]-N-methyl-isobutyramide]: the Ki in assay [1] is 2.57 nM; in assay [2] it was 1.66 nM.

Regarding `CN(C(=O)C(C)(C)c1cc(C(F)(F)F)cc(C(F)(F)F)c1)c1cnc(N2C[C@H](O)C[C@H]2CO)cc1-c1cc(Cl)ccc1Cl` [Example 226, (2S,4R)-2-(3,5-Bis-trifluoromethyl-phenyl)-N-[4-(2,5-dichloro-phenyl)-6-(4-hydroxy-2-hydroxymethyl-pyrrolidin-1-yl)-pyridin-3-yl]-N-methyl-isobutyramide], the Ki in assay [1] was 16.6 nM; in assay [2] it was 7.76 nM.

`Cc1ccc(F)cc1-c1cc(N2C[C@H](O)C[C@H]2CO)ncc1N(C)C(=O)C(C)(C)c1cc(C(F)(F)F)cc(C(F)(F)F)c1` [Example 227, (2S,4R)-2-(3,5-Bis-trifluoromethyl-phenyl)-N-[4-(5-fluoro-2-methyl-phenyl)-6-(4-hydroxy-2-hydroxymethyl-pyrrolidin-1-yl)-pyridin-3-yl]-N-methyl-isobutyramide]: the Ki in assay [1] is 1.38 nM; in assay [2] it was 1.1 nM.

As to `Cc1c(F)cccc1-c1cc(N2C[C@H](O)C[C@H]2CO)ncc1N(C)C(=O)C(C)(C)c1cc(C(F)(F)F)cc(C(F)(F)F)c1` [Example 228, (2S,4R)-2-(3,5-Bis-trifluoromethyl-phenyl)-N-[4-(3-fluoro-2-methyl-phenyl)-6-(4-hydroxy-2-hydroxymethyl-pyrrolidin-1-yl)-pyridin-3-yl]-N-methyl-isobutyramide], the Ki is 1.41 nM in assay [1] and 1.17 nM in assay [2].
